Several values for one entry are separate records, joined by “and”; a condition that tells them apart may be missing. Equal entries are not always repeated. Structures can show the parent of a compound that is named as a salt. Numbered stars: 1 amine (or outer) side, 2 acyl side, 3 side chain; on linkers, the order of the positions; unused ones are H or OH. Square brackets hold non-standard residues; d marks the D form. Peptide text beside a SMILES is read from it. * marks the point of attachment. Cyclohexylacetyl(1-SH) = O=C(CC1(S)CCCCC1)*; X1 = O=C(C(C=S)N[*:1])[*:2]
Experiments:
[1] = target: Alpha-2C adrenergic receptor
[2] = target: T1, Alpha-2A adrenergic receptor (Homo sapiens, UniProt P08913)
T1 sequence (P08913 whole entry): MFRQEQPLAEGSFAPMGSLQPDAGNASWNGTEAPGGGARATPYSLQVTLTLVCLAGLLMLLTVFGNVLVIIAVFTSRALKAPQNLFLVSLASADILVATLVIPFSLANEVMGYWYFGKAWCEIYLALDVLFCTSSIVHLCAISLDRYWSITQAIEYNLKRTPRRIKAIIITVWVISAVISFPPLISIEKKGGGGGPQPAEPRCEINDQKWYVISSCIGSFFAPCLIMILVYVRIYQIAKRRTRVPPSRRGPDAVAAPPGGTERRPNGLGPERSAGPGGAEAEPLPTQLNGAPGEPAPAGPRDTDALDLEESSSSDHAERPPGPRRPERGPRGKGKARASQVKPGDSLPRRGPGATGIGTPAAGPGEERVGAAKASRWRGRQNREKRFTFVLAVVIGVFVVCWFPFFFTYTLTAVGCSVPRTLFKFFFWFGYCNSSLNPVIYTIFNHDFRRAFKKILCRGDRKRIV

[3] = target: T2, Alpha-2B adrenergic receptor (Rattus norvegicus, UniProt P19328)
T2 sequence (P19328 whole entry): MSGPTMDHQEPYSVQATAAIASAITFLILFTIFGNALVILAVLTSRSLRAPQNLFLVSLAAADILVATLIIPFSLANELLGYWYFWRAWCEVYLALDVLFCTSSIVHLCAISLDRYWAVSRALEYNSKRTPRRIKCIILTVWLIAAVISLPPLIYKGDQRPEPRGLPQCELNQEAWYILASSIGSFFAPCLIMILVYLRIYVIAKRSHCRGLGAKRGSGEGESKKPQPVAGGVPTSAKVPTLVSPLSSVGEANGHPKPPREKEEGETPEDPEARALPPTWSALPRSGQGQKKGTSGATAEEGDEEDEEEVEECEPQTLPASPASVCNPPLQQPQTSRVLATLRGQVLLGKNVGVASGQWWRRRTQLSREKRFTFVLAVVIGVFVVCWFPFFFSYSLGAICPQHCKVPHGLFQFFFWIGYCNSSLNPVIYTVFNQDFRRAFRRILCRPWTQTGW

[4] = target: T3, Alpha-2C adrenergic receptor (Didelphis virginiana, UniProt P35405)
T3 sequence (P35405 whole entry): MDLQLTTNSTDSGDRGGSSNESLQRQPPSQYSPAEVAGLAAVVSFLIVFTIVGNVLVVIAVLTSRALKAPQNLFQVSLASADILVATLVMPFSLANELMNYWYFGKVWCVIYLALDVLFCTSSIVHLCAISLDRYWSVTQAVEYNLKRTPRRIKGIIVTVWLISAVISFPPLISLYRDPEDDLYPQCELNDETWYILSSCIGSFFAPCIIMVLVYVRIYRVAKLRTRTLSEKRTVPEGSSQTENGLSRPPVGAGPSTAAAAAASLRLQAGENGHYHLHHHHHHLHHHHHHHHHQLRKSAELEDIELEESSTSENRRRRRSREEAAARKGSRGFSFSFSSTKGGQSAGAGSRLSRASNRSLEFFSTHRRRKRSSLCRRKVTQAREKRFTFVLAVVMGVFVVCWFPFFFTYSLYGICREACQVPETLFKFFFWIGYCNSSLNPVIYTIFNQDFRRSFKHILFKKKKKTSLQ

Structure (SMILES) | Ki [1] | Ki [2] [nM] | Ki [3] [nM] | Ki [4] [nM]
CCCN(CCC)C1CCc2cccc(O)c2C1 (stereo unspecified) | 117 nM | 186 | 148 | 
CC(C)(C)[C@]1(O)CCN2C[C@H]3c4ccccc4CCc4cccc(c43)[C@@H]2C1 | 42 nM | 53 | 12 | 
c1ccc2c(c1)OCC(C1=NCCN1)O2 (stereo unspecified) | 0.56 nM |  |  | 2.4
CN1c2ccc(F)cc2CC1C1=NCCN1 (stereo unspecified) | 0.48 nM | 0.4 | 1 | 
Clc1ccc2nsnc2c1NC1=NCCN1 | 75 nM |  | 76 | 
OCCN1CCN(CCCN2c3ccccc3Sc3ccc(C(F)(F)F)cc32)CC1 [2-[4-[3-[2-(trifluoromethyl)phenothiazin-10-yl]propyl]piperazin-1-yl]ethanol;hydrochloride] | 122 nM | 304 | 320 | 
O=C(c1ccc(F)cc1)C1CCN(CCn2c(=O)[nH]c3ccccc3c2=O)CC1 [3-(2-{4-[(4-fluorophenyl)carbonyl]piperidin-1-yl}ethyl)-1,2,3,4-tetrahydroquinazoline-2,4-dione] | 159 nM |  | 226 | 
CN1CCN(C2=c3ccccc3=Nc3ccc(Cl)cc3N2)CC1 [6-chloro-10-(4-methylpiperazin-1-yl)-2,9-diazatricyclo[9.4.0.0^{3,8}]pentadeca-1,3(8),4,6,10,12,14-heptaene] | 4.2 nM |  |  | 
O=C1NCN(c2ccccc2)C12CCN(CC1COc3ccccc3O1)CC2 (stereo unspecified) [8-(2,3-Dihydro-benzo[1,4]dioxin-2-ylmethyl)-1-phenyl-1,3,8-triaza-spiro[4.5]decan-4-one] | 0.59 nM | 13 | 0.34 | 0.67
CSc1ccc2c(c1)N(CC[C@@H]1CCCCN1C)c1ccccc1S2 [10-[2-(1-Methyl-piperidin-2-yl)-ethyl]-2-methylsulfanyl-10H-phenothiazine (thioridazine)] | 549 nM |  |  | 
COC(=O)C1=CO[C@@H](C)[C@@H]2CN3CCc4c([nH]c5ccccc45)[C@H]3C[C@H]12 [AKUAMMIGINE] | 12 nM | 130 | 208 | 
COC(=O)C1=COC(C)C2CN3CCc4c([nH]c5ccccc45)C3CC12 (stereo unspecified) [Ajmalicine] | 1.1 nM and 0.3 nM |  |  | 
CN1C[C@H](Cn2ccnc2-c2ccccc2)C[C@@H]2c3cccc4[nH]c(Br)c(c34)C[C@H]21 [BAM-1303] | 0.38 nM | 2.5 | 26 | 
O=C1c2ccccc2CCC1CNCCc1ccc(O)cc1 (stereo unspecified) [CAS_34772] | 0.5 nM | 0.93 | 0.68 | 
Clc1cccc2c1CN(NC1=NCCN1)C2 [CAS_76727-72-5] | 0.08 nM | 0.06 | 0.14 | 
Cc1nc2n(c(=O)c1CCN1CCC(C(=O)c3ccc(F)cc3)CC1)CCS2 [CAS_86487-64-1] | 51 nM | 90 | 25 | 
CS(=O)(=O)NCCN(C1CCN2CCc3ccccc3C2C1)S(C)(=O)=O (stereo unspecified) [CAS_125697] | 0.56 nM | 11 | 5.2 | 
Cc1cccc(C)c1CCc1cnc[nH]1 [CAS_133305] | 14 nM | 8.7 | 18 | 
CCCS(=O)(=O)N(C)C1CCN2CCc3ccccc3C2C1 (stereo unspecified) [CAS_133816] | 0.86 nM | 2.2 | 1.9 | 
CCOc1ccc(CC(NC(=O)CC2(S)CCCCC2)C(=O)NC(Cc2ccccc2)C(=O)NC(C(=O)NC(CC(N)=O)C(=O)NC(C=S)C(=O)NC(CCCCN)C(N)=O)C(C)C)cc1 (stereo unspecified) [CAS_196343] ({Cyclohexylacetyl(1-SH)}-Y(Et)FVN[X1]K-NH2; configuration not given here) | 0.14 nM | 0.36 | 0.48 | 

Structure (SMILES) | Ki [1] | Ki [2] [nM] | Ki [3] [nM] | Ki [4] [nM]
CN1CCN(C2=Nc3ccccc3Sc3nccn32)CC1 [CGS-10746B] | 804 nM | 3600 | 574 | 
Clc1cncc(N2CCNCC2)n1 [L-630,571] | 126 nM | 153 | 125 | 
c1cn2ccnc2c(N2CCNCC2)n1 [L-639,019] | 88 nM | 35 | 34 | 
Fc1cccnc1N1CCNCC1 [L-644,763] | 20 nM | 20 | 23 | 
CN1CCC2(CCN3CCc4c(oc5ccccc45)C3C2)N(C)C1=O (stereo unspecified) [MK-912] | 0.03 nM | 0.42 | 0.26 | 
Oc1ccc(C2CNCCc3c2cc(O)c(O)c3Cl)cc1 (stereo unspecified) [MLS001401388] | 22 nM |  | 91 | 
CN1CCc2cccc(Cl)c2CC1 [MLS002172470] | 2.7 nM | 2.4 | 1.8 | 
CCCCS(=O)(=O)N(C)[C@H]1CCN2CCc3ccccc3[C@H]2C1 [N-[(2S,11bR)-2,3,4,6,7,11b-hexahydro-1H-benzo[a]quinolizin-2-yl]-N-methylbutane-1-sulfonamide hydrochloride] | 0.46 nM | 1.4 | 1.7 | 
C=CCN1Cc2ccccc2-c2ccccc2C1 [NSC_8966] | 14 nM | 38 | 5.3 | 
CN(C)CCCN1c2ccc(O)cc2Sc2ccc(Cl)cc21 [NSC_16414] | 325 nM |  | 59 | 
CCC1(c2cnc[nH]2)Cc2ccccc2C1 [NSC_71310] | 0.46 nM | 0.33 |  | 2.74
COc1ccccc1N1CCN(CCC2C(=O)c3ccccc3C(C)(C)C2=O)CC1 (stereo unspecified) [NSC_122211] | 13 nM | 171 | 1.6 | 48
CCOC1(C2=NCCN2)COc2ccccc2O1 (stereo unspecified) [NSC_125992] | 0.24 nM | 0.2 | 0.58 | 
COc1cccc(OC)c1OCCNCC1Oc2ccccc2OC1c1ccccc1 (stereo unspecified) [NSC_185453] | 0.27 nM | 1.2 | 8.7 | 1.6
c1ccc2c(c1)OCC(CN1CCCCC1)O2 (stereo unspecified) [Piperoxan] | 1.3 nM | 5.4 | 2 | 
CC(C)=CCOc1ccc(Cl)c2c1CCN(C)CC2 [SK&F-104078] | 43 nM | 32 | 49 | 
Cc1cc(C(C)(C)C)c(O)c(C)c1CC1=NCCN1 [SMR000059324] |  |  |  | 73
c1ccc(CC2=NCCN2)cc1 [Tolazoline] | 222 nM |  | 113 | 
CN(C)CCCN1c2ccccc2Sc2ccc(Cl)cc21 [[3-(2-Chloro-phenothiazin-10-yl)-propyl]-dimethyl-amine(Chlorpromazine)] |  |  |  | 116
COc1cc2nc(N3CCN(C(=O)c4ccco4)CC3)nc(N)c2cc1OC [[3H]-Minipress] | 15 nM |  |  | 36
